Results reported in patent publication US20060142349A1, “Methods of modulating the activities of alpha-7 nicotinic acetylcholine receptor” (Pfizer Inc, priority 2004, published 2006).
“Also recorded” adds a separate entry of the source. Read-outs that look alike come from different tables or passages of the source.

Key:
[1] = molecular target: T1, α7 nicotinic acetylcholine receptor (Rattus norvegicus, UniProt Q05941); assay: Resensitization of desensitized α7 nicotinic acetylcholine receptor, whole cell patch clamp; format: cell-based
T1 construct: Currents were recorded from individual neurons using the whole; endogenous in cells; host or cells: primary hippocampal neurons from postnatal day 3 Sprague-Dawley rats, cultured 1-2 weeks
T1 sequence (Q05941 23-502): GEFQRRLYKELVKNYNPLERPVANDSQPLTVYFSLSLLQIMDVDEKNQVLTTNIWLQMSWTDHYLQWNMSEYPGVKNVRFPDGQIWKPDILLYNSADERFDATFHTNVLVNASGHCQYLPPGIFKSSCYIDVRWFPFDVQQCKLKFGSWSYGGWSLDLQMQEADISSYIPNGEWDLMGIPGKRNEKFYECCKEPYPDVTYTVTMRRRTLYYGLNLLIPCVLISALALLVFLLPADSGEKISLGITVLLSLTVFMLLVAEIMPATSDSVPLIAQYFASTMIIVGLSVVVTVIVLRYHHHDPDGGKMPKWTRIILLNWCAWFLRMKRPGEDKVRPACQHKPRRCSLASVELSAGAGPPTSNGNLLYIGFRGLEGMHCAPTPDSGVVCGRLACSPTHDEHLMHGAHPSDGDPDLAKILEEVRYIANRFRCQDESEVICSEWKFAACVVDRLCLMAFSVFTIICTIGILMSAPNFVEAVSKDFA

[2] = molecular target: T1, α7 nicotinic acetylcholine receptor; assay: Inhibition of desensitization of α7 nicotinic acetylcholine receptor by acetylcholine, whole cell patch clamp; format: cell-based; settings: rat hippocampal neurons, continuous exposure to compound, acetylcholine 1 mM applied for 1 second once every minute

## Cl.O=C(N[C@H]1CN2CCC1CC2)c1ccc(Cl)cc1 [Compound 1, N-[(3R)-1-azabicyclo[2.2.2]oct-3-yl]-4-chlorobenzamide hydrochloride]
[1]; rat hippocampal neurons, agonist applied continuously for 3 minutes, hydrochloride
  agonist-evoked inward current and receptor desensitization: desensitization; also recorded: initial inward current that rapidly declined back to baseline

## CN1CCCC1c1cccnc1 (stereo not shown) [nicotine]
[1]; nicotine as agonist, expected result ("should result")
  agonist-evoked inward current and receptor desensitization: initial inward current that rapidly declines back to baseline

## Oc1ccc2[nH]ccc2c1 [5-hydroxyindole]
[1]; rat hippocampal neurons, applied after 60 seconds of continuous exposure to agonist Compound 1 (3 μM), in its continued presence
  resensitization of the desensitized α7 nicotinic acetylcholine receptor (inward current evoked in the continued presence of agonist): does not resensitize; also recorded: did not resensitize; also recorded: no significant effect
[2]
  inhibition of desensitization (desensitization kinetics of acetylcholine-induced ion currents): does not alter the rate of receptor desensitization; also recorded: had no such effect; also recorded: did not affect the desensitization kinetics

## COc1cc(OC)c(NC(=O)Nc2cc(C)on2)cc1Cl [Compound 2, N-(5-chloro-2,4-dimethoxyphenyl)-N′-(5-methylisoxazol-3-yl)urea]
[1]
  resensitization of the desensitized α7 nicotinic acetylcholine receptor (inward current evoked in the continued presence of agonist): resensitizes; also recorded: large persistent inward current that was readily reversed upon washout
[2]
  inhibition of desensitization (desensitization kinetics of acetylcholine-induced ion currents): inhibition
[2]; listed as compound 2
  inhibition of desensitization (desensitization kinetics of acetylcholine-induced ion currents): significant inhibition or slowing of receptor desensitization
